Source: PubChem BioAssay AID1613 (NINDS Approved Drug Screening Program, 2009)

What follows are molecules tested on GFP-SOD1 mutant aggregation, cell imaging (assay: inhibitors of mutant SOD1 aggregation, cell-based (AID 1613)).

**Q.** How did the EC50 turn out when CC[C@H]1CN2CCc3cc(OC)c(OC)cc3C2C[C@@H]1CC1NCCc2cc(OC)c(OC)cc21 (some centres undefined) was run?
**A.** 5 µM

**Q.** With C[C@@H]1C[C@@H]([C@H](O)CC2CC(=O)NC(=O)C2)C(=O)[C@@H](C)C1 as the molecule, how does the EC50 read?
**A.** 2 µM

**Q.** Which EC50 does the source give for C[n+]1c2cc(N)ccc2cc2ccc(N)cc21 here?
**A.** 10 µM

**Q.** Which EC50 does the source give for CO[C@H]1[C@H](O)[C@H](O[C@H]2CC[C@]3(C)C4CC[C@]5(C)C(C6=CC(=O)OC6)CC[C@]5(O)C4CC[C@@H]3C2)O[C@@H](C)[C@@H]1O (some centres undefined) here?
**A.** 5 µM

**Q.** For CC(=O)O[C@H]1C(=O)[C@@]2(C)C([C@H](OC(=O)c3ccccc3)[C@]3(O)C[C@H](OC(=O)[C@H](O)[C@@H](NC(=O)c4ccccc4)c4ccccc4)C(C)=C1C3(C)C)[C@]1(OC(C)=O)CO[C@@H]1C[C@@H]2O (some centres undefined), which EC50 is on record?
**A.** 5 µM

**Q.** Which EC50 does the source give for C[C@]12CCC3C(CC[C@]4(O)C[C@@H](O)CC[C@]34C=O)[C@@]1(O)CCC2C1=CC(=O)OC1 (some centres undefined) here?
**A.** 5 µM

**Q.** With C[C@H]1O[C@@H](O[C@H]2[C@@H](O)C[C@H](O[C@H]3[C@@H](O)C[C@H](O[C@H]4CC[C@]5(C)C6CC[C@]7(C)[C@@H](C8=CC(=O)OC8)CC[C@]7(O)C6CC[C@@H]5C4)O[C@@H]3C)O[C@@H]2C)C[C@H](O)[C@@H]1O (some centres undefined) as the molecule, how does the EC50 read?
**A.** 20 µM

**Q.** With CC[C@@]1(O)C(=O)OCc2c1cc1n(c2=O)Cc2cc3ccccc3nc2-1 as the molecule, how does the EC50 read?
**A.** 15 µM

**Q.** With CC(=O)O[C@H]1C[C@H](O[C@H]2[C@@H](O)C[C@H](O[C@H]3[C@@H](O)C[C@H](O[C@H]4CC[C@@]5(C)C(CCC6C5C[C@@H](O)[C@]5(C)[C@@H](C7=CC(=O)OC7)CC[C@]65O)C4)O[C@@H]3C)O[C@@H]2C)O[C@H](C)[C@H]1O[C@@H]1O[C@H](CO)[C@@H](O)[C@H](O)[C@H]1O (some centres undefined) as the molecule, how does the EC50 read?
**A.** 5 µM

**Q.** Which EC50 does the source give for C[C@H]1O[C@@H](O[C@H]2[C@@H](O)C[C@H](O[C@H]3[C@@H](O)C[C@H](O[C@H]4CC[C@]5(C)C6C[C@@H](O)[C@]7(C)[C@@H](C8=CC(=O)OC8)CC[C@]7(O)C6CC[C@@H]5C4)O[C@@H]3C)O[C@@H]2C)C[C@H](O)[C@@H]1O (some centres undefined) here?
**A.** 20 µM

**Q.** With COc1ccc(C[C@H]2NC[C@H](O)[C@H]2OC(C)=O)cc1 as the molecule, how does the EC50 read?
**A.** 2 µM

**Q.** CO[C@H]1[C@H](O)[C@@H](O[C@H]2CC[C@]3(C=O)C4CC[C@]5(C)[C@@H](C6=CC(=O)OC6)CC[C@]5(O)C4CC[C@@H]3C2)O[C@@H](C)[C@@H]1O (some centres undefined) was tested. Which EC50 did it give?
**A.** 5 µM

**Q.** O=C1c2c(O)ccc(O)c2C(=O)c2c(NCCNCCO)ccc(NCCNCCO)c21 was tested. Which EC50 did it give?
**A.** 5 µM

**Q.** How did the EC50 turn out when CCN(CC)CCNc1ccc(CO)c2sc3ccccc3c(=O)c12 was run?
**A.** 20 µM
